This note sets out measurements from ChEMBL document CHEMBL4020723, “Indoles as therapeutics of interest in medicinal chemistry: Bird's eye view” (Eur J Med Chem, 2017).

One assay concerns HeLa. The assay can be described thus: Cytotoxicity against human HeLa cells. The class given is functional, cell-based.
The next assay concerns Streptococcus pyogenes. Briefly: Antibacterial activity against Streptococcus pyogenes. It counts as functional.
Assay [1] relates to Staphylococcus haemolyticus. The assay can be described thus: Antibacterial activity against Staphylococcus haemolyticus. The class given is functional.
For a further assay, the system named is Enterococcus faecium. The assay can be described thus: Antibacterial activity against Enterococcus faecium. The class given is functional.
Another assay has as its system Staphylococcus aureus. The assay can be described thus: Antibacterial activity against Staphylococcus aureus. The class given is functional.
A further assay relates to Enterococcus faecalis. The assay can be described thus: Antibacterial activity against Enterococcus faecalis. It counts as functional.
Another assay relates to Bacillus subtilis. The assay can be described thus: Antibacterial activity against Bacillus subtilis. It counts as functional.
The subject of assay [2] is Plasmodium falciparum. Briefly: Antimalarial activity against Plasmodium falciparum D6. The class given is functional.
Assay [3] can be described thus: Inhibition of HDAC (unknown origin). Also on record: species or system Homo sapiens.
In another assay the test system is HCT-8. Briefly: Cytotoxicity against human HCT8 cells. It counts as functional, cell-based.
Another assay deals with A549. The assay can be described thus: Cytotoxicity against human A549 cells. It counts as functional, cell-based.
For assay [4], the system named is P388. Briefly: Cytotoxicity against mouse P388 cells. The class given is functional, cell-based.
Assay [5] is described as follows: Cytotoxicity against human MDA-MB cells. It counts as functional, cell-based.
The test system of a further assay is Mycobacterium. The assay can be described thus: Antibacterial activity against Mycobacterium. It counts as functional.
Assay [6] deals with Plasmodium falciparum. Briefly: Antiplasmodial activity against chloroquine-resistant Plasmodium falciparum W2 after 24 hrs by liquid scintillation counting analysis. It counts as functional. The following applies: W2, 24 h.
The subject of assay [7] is Plasmodium falciparum. The assay can be described thus: Antiplasmodial activity against chloroquine-resistant Plasmodium falciparum K1 after 24 hrs by liquid scintillation counting analysis. It counts as functional. Conditions: K1, 24 h.
Assay [8] relates to Plasmodium falciparum. Briefly: Antiplasmodial activity against chloroquine-resistant Plasmodium falciparum W2 infected in human erythrocytes after 72 hrs by giemsa staining based microscopic analysis. It counts as functional, cell-based. Conditions: W2, 72 h.
Assay [9] concerns the target Protein kinase C beta type (Homo sapiens) (UniProt P05771). Briefly: Inhibition of PKCbeta (unknown origin).
For assay [10], the target named is Protein kinase C alpha type (Homo sapiens) (UniProt P17252). Briefly: Inhibition of PKCalpha (unknown origin).
The next assay deals with Helicobacter pylori. The assay can be described thus: Antibacterial activity against Helicobacter pylori. The class given is functional.
The subject of a further assay is K562. The assay can be described thus: Cytotoxicity against human K562 cells assessed as reduction in cell viability after 72 hrs by MTT assay. Conditions: K562, 72 h. The class given is functional, cell-based. (In general: Formazan colour is commonly taken as a measure of viable cells.)
The next assay relates to HL-60. The assay can be described thus: Cytotoxicity against human HL60 cells assessed as reduction in cell viability after 72 hrs by MTT assay. The class given is functional, cell-based. The following applies: HL-60, 72 h.
Assay [11] relates to Human immunodeficiency virus 1. Briefly: Antiviral activity against HIV-1 assessed as inhibition of virus-induced syncytia formation. The class given is functional.
The test system of another assay is HT-29. Briefly: Cytotoxicity against human HT-29 cells. The class given is functional, cell-based.
Assay [12] relates to P388. The assay can be described thus: Cytotoxicity against mouse doxorubicin-resistant P388 cells. The class given is functional, cell-based.
A further assay concerns KB. The assay can be described thus: Cytotoxicity against human KB cells. The class given is functional, cell-based.
A short description of assay [13]: Cytotoxicity against human NSCLC-N6 cells. It counts as functional, cell-based.
Another assay has as its system Human alphaherpesvirus 2. The assay can be described thus: Antiviral activity against Herpes simplex virus type 2 by plaque reduction assay. The class given is functional. Conditions: read-out: ID50 (the source's name). On the technique in general: Plaques are areas of infected cells; plaque reduction assays count them against a control.
The next assay has as its system Human alphaherpesvirus 1. The assay can be described thus: Antiviral activity against Herpes simplex virus type 1 by plaque reduction assay. It counts as functional. Conditions: read-out: ID50 (the source's name).
The next assay has as its system Rattus norvegicus. The assay can be described thus: Antiinflammatory activity in rat assessed as inhibition of carrageenan-induced paw edema at 50 mg/kg, po administered 1 hr prior to carrageenan challenge measured 4 hrs post dose. It counts as functional. On the technique in general: The carrageenan paw model is a standard test of acute inflammation.

≈ marks a conversion by molar mass, not a printed value. Bounds are passed on as bounds.

Sequence of Protein kinase C beta type (Homo sapiens) (P05771 2-671 limits assumed): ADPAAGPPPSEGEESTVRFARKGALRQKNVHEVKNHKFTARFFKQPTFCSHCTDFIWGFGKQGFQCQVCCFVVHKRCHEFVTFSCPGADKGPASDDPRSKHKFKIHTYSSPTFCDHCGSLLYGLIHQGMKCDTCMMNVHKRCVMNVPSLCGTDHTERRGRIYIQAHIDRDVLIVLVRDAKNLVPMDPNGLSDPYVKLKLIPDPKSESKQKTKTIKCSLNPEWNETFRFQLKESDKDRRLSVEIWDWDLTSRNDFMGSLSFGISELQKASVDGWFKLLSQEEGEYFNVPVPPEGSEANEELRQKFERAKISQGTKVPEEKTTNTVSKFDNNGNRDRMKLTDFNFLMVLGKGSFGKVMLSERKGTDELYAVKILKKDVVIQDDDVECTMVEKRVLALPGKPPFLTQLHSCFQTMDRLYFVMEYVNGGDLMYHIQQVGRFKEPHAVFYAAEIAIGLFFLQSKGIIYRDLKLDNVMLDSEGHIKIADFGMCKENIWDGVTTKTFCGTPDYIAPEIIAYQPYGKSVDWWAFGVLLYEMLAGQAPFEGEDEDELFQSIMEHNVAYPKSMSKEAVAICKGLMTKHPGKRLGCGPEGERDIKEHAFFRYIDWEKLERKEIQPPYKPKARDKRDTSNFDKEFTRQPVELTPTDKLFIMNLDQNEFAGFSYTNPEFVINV

In the assay on HeLa, `COC(=O)[C@@]1(C)Nc2c(O)cc3c(c2C1=O)[C@@H](CBr)CN3C(=O)c1cc2cc(OC)c(OC)c(OC)c2[nH]1` had an IC50 of 0.001 to 1 nM.

As to `CN[C@@H](CC(C)C)C(=O)NCCc1c(Br)[nH]c2cc(Br)c(Br)cc12` [ALTEMATAMIDE B], the MIC (against Streptococcus pyogenes; in assay [1]; in the assay on Enterococcus faecium; against Staphylococcus aureus; against Enterococcus faecalis; against Bacillus subtilis) was 4 to 32 µg/mL (≈ 7.63 to 61.1 µM) each time.

`CN[C@@H](CC(C)C)C(=O)NCCc1c(Br)n(C)c2cc(Br)c(Br)cc12` [ALTEMATAMIDE A]: the MIC (against Streptococcus pyogenes; in assay [1]; against Enterococcus faecium; against Staphylococcus aureus; in the assay with Enterococcus faecalis; with Bacillus subtilis) was 4 to 32 µg/mL (≈ 7.43 to 59.5 µM) throughout.

Turning to `O[C@]12C=C(c3nccc4c3[nH]c3ccccc34)[C@@H]3CCN(CCCC/C=C\CC1)C[C@@]31C[C@@H]3/C=C\CCCCN3[C@H]12` [MANZAMINE A], the lowest concentration to inhibit growth in the assay with Plasmodium falciparum [2] (MIC) was 4.5 µg/mL (≈ 8.2 µM).

`O=C(/C=C/c1ccc(CN(CCO)CCc2c[nH]c3ccccc23)cc1)NO` [DACINOSTAT] yielded an IC50 in assay [3] of 32 nM.

Turning to `CN1C[C@H](c2c[nH]c3c(Br)c(Br)cc(O)c23)NC[C@H]1c1c[nH]c2cc(Br)ccc12`, the IC50 was 1 to 10 µg/mL (≈ 1.71 to 17.1 µM) in the assay on HCT-8, 1 to 10 µg/mL (≈ 1.71 to 17.1 µM) with A549, 15 µg/mL (≈ 25.7 µM) with P388 [4] and 1 to 10 µg/mL (≈ 1.71 to 17.1 µM) in assay [5].

Consider `O=c1ccc2nccc3c4cccc(O)c4n1c23`, for which the MIC (commonly the smallest concentration in the dilution series that meets the test's criterion for growth inhibition) is 8 to 64 µg/mL (≈ 33.9 to 271 µM) against Staphylococcus aureus and 2 to 32 µg/mL (≈ 8.47 to 135 µM) against Mycobacterium.

Take `O=c1ccc2nccc3c4ccccc4n1c23` [CANTHIN-6-ONE]: the figures for the MIC in the assay on Staphylococcus aureus and in the assay with Mycobacterium were 8 to 64 µg/mL (≈ 36.3 to 291 µM) and 2 to 32 µg/mL (≈ 9.08 to 145 µM), respectively.

Consider `Cn1c2c3ccccc3nc-2c(O)c2ccccc21` [HYDROXYCRYPTOLEPINE], for which the IC50 in the assay on Plasmodium falciparum [6] and in the assay on Plasmodium falciparum [7] was 0.027 to 0.063 µg/mL (≈ 0.109 to 0.254 µM) in each case.

For the compound `C=C1c2[nH]c3ccccc3c2C2C(CC)C1CCN2C` (stereo not drawn), the IC50 with Plasmodium falciparum [8] is less than 1 µg/mL.

Consider `C[n+]1c2ccccc2cc2[n-]c3ccccc3c21` [CRYPTOLEPINE], for which the IC50 in the assay on Plasmodium falciparum [6] and in the assay on Plasmodium falciparum [7] was 0.027 to 0.063 µg/mL (≈ 0.116 to 0.271 µM) throughout.

On to `N#CCCn1c2ccccc2c2c3c(c4c5ccccc5[nH]c4c21)C(=O)NC3`, for which the figures for the INH in assay [9] and in [10] were 6.2 nM and 2.3 nM, respectively.

`C[n+]1c2ccccc2cc2[n-]c3ccccc3c21.Cl` [CRYPTOLEPINE HYDROCHLORIDE]: the IC50 in the assay with Plasmodium falciparum [6] and in the assay with Plasmodium falciparum [7] was 0.027 to 0.063 µg/mL each time.

For `Cn1c2nc3ccccc3c-2cc2ccccc21` [NEOCRYPTOLEPINE], the IC50 with Plasmodium falciparum [6] and in the assay with Plasmodium falciparum [7] was 0.027 to 0.063 µg/mL (≈ 0.116 to 0.271 µM) throughout.

Consider `CNC1=NC(=O)[C@H]([C@H](C)c2c[nH]c3ccccc23)O1` [INDOMYCIN], for which the MIC against Staphylococcus aureus came out at 0.5 µg/mL (≈ 1.94 µM); against Helicobacter pylori, 0.016 µg/mL (≈ 0.0622 µM).

Take `CC(C)=CCc1cccc2c1N[C@@H]1N3C(=O)[C@H](Cc4c[nH]c5c(CC=C(C)C)cccc45)NC(=O)[C@@H]3C[C@]21O`: the IC50 came to 22400 nM with K562 and 780 nM in the assay on HL-60.

For the compound `Oc1cccc2c1[nH]c1c(C3=C[C@@]4(O)CC/C=C\CCCCN5CC[C@@H]3[C@@]3(C[C@@H]6/C=C\CCCCN6[C@H]34)C5)nccc12`, inhibition of growth against Plasmodium falciparum [2] (MIC) required 6 µg/mL (≈ 10.6 µM).

On to `CN[C@@H](CC(C)C)C(=O)NCCc1c(Br)[nH]c2ccc(Br)cc12` [ALTEMATAMIDE C], for which the MIC (in the assay with Streptococcus pyogenes; in [1]; against Enterococcus faecium; against Staphylococcus aureus; against Enterococcus faecalis; in the assay with Bacillus subtilis) was 4 to 32 µg/mL (≈ 8.98 to 71.9 µM) throughout.

In the case of `COc1ccc2c(c1)N=CN1CCc3c([nH]c4ccccc34)C3=NCC[C@@]321`, the concentration giving a half-maximal response (EC50) (as a rule, the concentration that produces a half-maximal response) in assay [11] amounted to 0.95 µg/mL (≈ 2.67 µM).

Consider `CN1C(=N)N(C)/C(=C/c2c[nH]c3cc(Br)ccc23)C1=O`, for which the MIC against Plasmodium falciparum [2] came out at 0.34 µg/mL (≈ 1.02 µM).

In turn, `COC(=O)[C@@]1(C)Nc2c(O)cc3c(c2C1=O)C[C@@H](Br)CN3C(=O)c1cc2cc(OC)c(OC)c(OC)c2[nH]1` returned an IC50 in the assay with HeLa of 0.001 to 1 nM.

For `COC(=O)[C@@]1(C)NC2=C(C1=O)[C@@]13C[C@H]1CN(C(=O)c1cc4cc(OC)c(OC)c(OC)c4[nH]1)C3=CC2=O`, the IC50 in the assay on HeLa was in the range of 0.001 to 1 nM.

As for `NCCc1c(C(CN)c2c[nH]c3cc(Br)ccc23)[nH]c2cc(C(CN)c3c[nH]c4cc(Br)ccc34)c(O)cc12` (stereo not drawn) [GELLIUSINE A], the IC50 (in the assay on HT-29; with P388 [4]; in the assay with P388 [12]; in the assay with KB; in assay [13]) was 10 to 20 µg/mL (≈ 15.4 to 30.7 µM) in each case.

For `CC(C)CC(=O)[C@@H](O)Cc1c[nH]c2ccccc12`, the IC50 with Human alphaherpesvirus 2 and in the assay with Human alphaherpesvirus 1 was 1500 µg/mL (≈ 6110 µM) throughout.

In the case of `[O-][n+]1ccc2c([nH]c3ccccc32)c1C1=C[C@@]2(O)CC/C=C\CCCCN3CC[C@@H]1[C@]1(C[C@@H]4/C=C\CCCCN4[C@H]12)C3`, the MIC with Plasmodium falciparum [2] came to 11 µg/mL (≈ 19.5 µM).

For the compound `O=C(O)c1ccc(C(=O)N/N=C/c2c(-c3cccs3)[nH]c3ccccc23)cc1`, the inhibition in vivo (in general, the percentage by which the read-out fell short of the control) at 50 mg/kg in the assay on Rattus norvegicus amounted to 55.3%.
